Test [1] deals with L 1210/MA-27.1 cells. Description: Flow cytometric staining of L1210/MA-27.1 cells (lacking es nucleoside transporter). Format: cell-based, mouse. Particulars: with or without NBMPR pretreatment, FIG. 9. As for the experimental part:
(§1) Flow cytometric measurements of binding of .[.SAENTA-x2 -fluorescein.]. .Iadd.SAENTA-X2-fluorescein .Iaddend.prepared as in Example 3 was carried out as in Example 4 using two clonal lines of cultured mouse leukemia L 1210 cells, L 1210/B23.1 and L 1210/MA-27.1. L 1210/B23.1 expresses NBMPR binding sites and nuclesoside transporter activity whereas L 1210/MA-27.1 cells lack both of these features.
(§2) Staining conditions were chosen to minimise non-specific fluorescence signals from L 1210/MA-27.1 cells treated with the nucleoside.
(§3) Cells were exposed for 10 min at 4° C. to phosphate-buffered (pH 8.0) salts medium containing 40 nM .[.5(SAENTA-xx2)fluorescein.]. .Iadd.5-(SAENTA-X2)-fluorescein .Iaddend.prior to flow cytometric analysis in a BD FACSan instrument; 10^5 cells were analysed. Cells in replicate assay mixtures were also exposed for 5 min at 22° C. to medium containing 10 μM NBMPR and then for 10 min at 4° C. to medium containing both NBMPR and .[.5-SAENTA-x2)-fluorescein.]. .Iadd.5-(SAENTA-X2)-fluorescein.Iaddend..
(a) Clonal lines of mouse leukemia cells were exposed for 10 min at 4° C. to phosphate buffered (pH 8.0) saline containing […] .[.5-(SAENTA-x2)-fluorescein.]. .Iadd.5-(SAENTA-X2)-fluorescein .Iaddend.(prepared as in Example 3) prior to flow cytometric analysis in a BD FACScan instrument; 10^4 cells were analysed. […]
Background: Flow cytometry measures light scatter and fluorescence of single cells or particles in a stream.

Test [2] concerns the target T1, es nucleoside transporter (Mus musculus, UniProt Q9JIM1).
T1 construct: endogenous in cells; host or cells: L1210/B23.1 mouse leukemia cells
T1 sequence (Q9JIM1 1-460): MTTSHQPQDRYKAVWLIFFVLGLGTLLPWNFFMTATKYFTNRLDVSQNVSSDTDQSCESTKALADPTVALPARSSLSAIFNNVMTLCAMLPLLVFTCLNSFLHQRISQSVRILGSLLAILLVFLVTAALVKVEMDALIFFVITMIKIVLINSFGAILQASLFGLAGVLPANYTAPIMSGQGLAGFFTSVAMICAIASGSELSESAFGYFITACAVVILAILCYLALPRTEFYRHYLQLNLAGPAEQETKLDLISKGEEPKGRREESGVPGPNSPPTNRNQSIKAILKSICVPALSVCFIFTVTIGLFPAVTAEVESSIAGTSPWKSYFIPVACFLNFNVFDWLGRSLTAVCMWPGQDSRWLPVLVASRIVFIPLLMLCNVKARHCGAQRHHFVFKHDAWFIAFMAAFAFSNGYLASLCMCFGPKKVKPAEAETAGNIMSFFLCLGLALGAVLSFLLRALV
Description: Flow cytometric staining of L1210/B23.1 cells (es nucleoside transporter-expressing) by SAENTA-fluorescein probe. The class given is cell-based. The protocol:
as §1, §2, §3
(a) Clonal lines of mouse leukemia cells were exposed for 10 min at 4° C. to phosphate buffered (pH 8.0) saline containing […] .[.5-(SAENTA-x2)-fluorescein.]. .Iadd.5-(SAENTA-X2)-fluorescein .Iaddend.(prepared as in Example 3) prior to flow cytometric analysis in a BD FACScan instrument; 10^4 cells were analysed. Cells in replicate mixtures were also exposed for 5 min at 22° C. to medium containing 10 μM NBMPR and then for 10 min at 4° C. to medium containing both NBMPR and .[.5-(SAENTA-x2)-fluorescein.]. .Iadd.5-(SAENTA-X2)-fluorescein.Iaddend.. L 1210/B23.1 cells express the es nucleoside transport system whereas L 1210/MA-27.1 cells lack that activity.

In test [3] the target is T1, es nucleoside transporter. Description: Concentration-dependence of fluorescent staining of L1210/B23.1 cells by flow cytometry. The class given is cell-based. Particulars: 40 min, 4° C., pH 8.0, autofluorescence 298. The protocol: (b) Concentration-dependence of fluorescent staining of L 1210/23.1 cells by .[.5-(SAENTA-x2)-fluorescein.]. .Iadd.5-(SAENTA-X2)-fluorescein .Iaddend.was measured and the results are set out in Table 4.
Cells in PBS at pH 8.0 were incubated with the listed concentrations of the SAENTA-fluor probe at 4° C. for 40 min prior to flow cytometric analysis.

Test [4] deals with T1, es nucleoside transporter. Briefly: [3H]NBMPR equilibrium binding to L1210/B23.1 cells and its inhibition by SAENTA-fluorescein probes. Particulars: 22°, replots of Kd(app)/Bmax versus [probe], read-out: Ki (mean ± S.D.).
For test [5], the system named is es nucleoside transporter. Particulars: Gati et al. 1987; cited from earlier work.

With `O=C1OC2(c3ccc(O)cc3Oc3cc(O)ccc32)c2ccc(NC(=S)NCCSC[C@H]3O[C@@H](n4cnc5c(NCc6ccc([N+](=O)[O-])cc6)ncnc54)[C@H](O)[C@@H]3O)cc21` [5-(SAENTA-X2)-fluorescein, 5'-S-[2-(Fluorescein-5-thioureidyl)ethyl]-N^6-(4-nitrobenzyl)-5'-thioadenosine], the “fluorescence of L1210/MA27.1 cells after staining compared with autofluorescence” value in test [1] is on record as “very similar”. For the same molecule, the “staining of L1210/B23.1 cells” value in test [2] (40 mM (so in the source), 10 min, 4° C., pH 8.0, FIG. 9) was “stained 1210/B23.1 cells”. In test [2] (L1210/B23.1 versus L1210/MA27.1, FIG. 9), the “specificity of staining of the cell lines” value is listed as “specific for the es nucleoside transporter system”. Further, the Fluorescence intensity in test [3] (5 nM) is 301 mean channel no; in test [3] (10 nM), 344 mean channel no; in test [3] (20 nM) it was 372 mean channel no; in test [3] (40 nM), 407 mean channel no; in test [3] (60 nM), 427 mean channel no; in test [3] (80 nM), 429 mean channel no. The Fluorescence intensity was 497 mean channel no in test [3] (160 nM), 601 mean channel no in test [3] (320 nM), 691 mean channel no in test [3] (640 nM) and 761 mean channel no in test [3] (1280 nM). Besides, the Ki in test [4] was determined as 17 ± 8 nM.
In the case of “[^125 I]Iodohydroxynitrobenzylthioinosine [[125I]Iodohydroxynitrobenzylthioinosine]”, the non-specific adsorption result in test [5] is “high non-specific adsorption”.

The values are drawn from patent USRE35904E, “Method and probes for detecting nucleoside transporter and method for producing the probes” (Governors of the University of Alberta, priority 1995, dated 1998).
